The assay can be described thus: Inhibition of calmodulin dependent cAMP phosphodiesterase.

Structures are written as SMILES.

On to `CC/C(=C(\c1ccccc1)c1ccc(OCCN(C)C)cc1)c1ccccc1` [TAMOXIFEN], for which the IC50 (as a rule, the concentration that gives 50% inhibition) stood at 6.75 µM.

Regarding `CC/C(=C(\c1ccccc1)c1ccc(OCCN2CCNCC2)cc1)c1ccccc1`, the IC50 was more than 50 µM. For `CCC(=C(c1ccc(O)cc1)c1ccc(OCCN(C)C)cc1)c1ccccc1`, the IC50 is 19 µM. With `CC/C(=C(\c1ccccc1)c1ccc(OCCN(CC)CC)cc1)c1ccccc1` the figure was 10 µM; with `C/C(=C(\c1ccccc1)c1ccc(OCCN(C)C)cc1)c1ccccc1`, 20 µM. On to `CC/C(=C(\c1ccc(I)cc1)c1ccc(OCCN(C)C)cc1)c1ccccc1`, for which the midpoint of inhibition, the IC50, lay at 2.3 µM.

Source of the values: ChEMBL document CHEMBL1125494, “A molecular modeling study of the interactions between the antiestrogen drug tamoxifen and several derivatives, and the calcium-binding protein calmodulin” (J Med Chem, 1992).
